Source: ChEMBL document CHEMBL1137098, “Design, synthesis, and biochemical evaluation of novel alpha V beta 3 integrin ligands” (Bioorg Med Chem Lett, 2004)
Blank lines part the entries; values can stand above or below the compound they belong to.

What was measured:
Assay type in all cases: protein-complex assay
Integrin alpha-V/beta-3 = Integrin alpha-V/beta-3 (Homo sapiens, UniProt P05106+P06756); test: In vitro inhibitory activity against alpha v beta 3 vitronectin protein interaction was measured by ELISA
Integrin alpha-V/beta-5 = Integrin alpha-V/beta-5 (Homo sapiens, UniProt P06756+P18084); test: In vitro inhibitory activity against alpha v beta 5 vitronectin protein interaction was measured by ELISA
[1] = biological target: Integrin alpha-IIb/beta-3 (Homo sapiens, UniProt P05106+P08514); test: In vitro inhibitory activity against alpha IIb beta IIIa fibrinogen protein interaction was measured by ELISA
Integrin alpha-5/beta-1 = Integrin alpha-5/beta-1 (Homo sapiens, UniProt P05556+P08648); test: In vitro inhibitory activity against alpha 5 beta 1 fibronectin protein interaction was measured by ELISA
Integrin alpha-5/beta-1, sequence (P05556 21-798 limits assumed): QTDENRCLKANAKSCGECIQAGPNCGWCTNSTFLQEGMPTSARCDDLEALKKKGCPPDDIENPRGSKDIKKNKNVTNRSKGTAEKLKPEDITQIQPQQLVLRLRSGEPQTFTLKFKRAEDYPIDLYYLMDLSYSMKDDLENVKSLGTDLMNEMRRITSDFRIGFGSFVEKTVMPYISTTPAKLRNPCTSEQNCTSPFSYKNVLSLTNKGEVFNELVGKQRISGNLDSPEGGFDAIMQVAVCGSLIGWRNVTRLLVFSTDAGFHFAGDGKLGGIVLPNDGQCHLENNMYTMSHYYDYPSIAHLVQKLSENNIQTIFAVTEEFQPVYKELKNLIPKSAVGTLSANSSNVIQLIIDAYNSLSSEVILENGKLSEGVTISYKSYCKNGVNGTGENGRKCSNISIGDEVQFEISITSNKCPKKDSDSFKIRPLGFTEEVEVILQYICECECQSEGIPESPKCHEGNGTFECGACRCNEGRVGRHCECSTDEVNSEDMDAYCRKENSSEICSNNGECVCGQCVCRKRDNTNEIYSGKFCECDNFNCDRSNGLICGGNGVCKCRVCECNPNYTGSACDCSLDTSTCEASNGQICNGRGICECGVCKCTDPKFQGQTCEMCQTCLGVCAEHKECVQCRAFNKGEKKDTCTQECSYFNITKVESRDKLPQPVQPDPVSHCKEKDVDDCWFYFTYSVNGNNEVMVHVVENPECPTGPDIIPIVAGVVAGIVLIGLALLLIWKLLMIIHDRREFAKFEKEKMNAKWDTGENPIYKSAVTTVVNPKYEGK
Integrin alpha-5/beta-1, sequence (P08648 42-894 limits assumed): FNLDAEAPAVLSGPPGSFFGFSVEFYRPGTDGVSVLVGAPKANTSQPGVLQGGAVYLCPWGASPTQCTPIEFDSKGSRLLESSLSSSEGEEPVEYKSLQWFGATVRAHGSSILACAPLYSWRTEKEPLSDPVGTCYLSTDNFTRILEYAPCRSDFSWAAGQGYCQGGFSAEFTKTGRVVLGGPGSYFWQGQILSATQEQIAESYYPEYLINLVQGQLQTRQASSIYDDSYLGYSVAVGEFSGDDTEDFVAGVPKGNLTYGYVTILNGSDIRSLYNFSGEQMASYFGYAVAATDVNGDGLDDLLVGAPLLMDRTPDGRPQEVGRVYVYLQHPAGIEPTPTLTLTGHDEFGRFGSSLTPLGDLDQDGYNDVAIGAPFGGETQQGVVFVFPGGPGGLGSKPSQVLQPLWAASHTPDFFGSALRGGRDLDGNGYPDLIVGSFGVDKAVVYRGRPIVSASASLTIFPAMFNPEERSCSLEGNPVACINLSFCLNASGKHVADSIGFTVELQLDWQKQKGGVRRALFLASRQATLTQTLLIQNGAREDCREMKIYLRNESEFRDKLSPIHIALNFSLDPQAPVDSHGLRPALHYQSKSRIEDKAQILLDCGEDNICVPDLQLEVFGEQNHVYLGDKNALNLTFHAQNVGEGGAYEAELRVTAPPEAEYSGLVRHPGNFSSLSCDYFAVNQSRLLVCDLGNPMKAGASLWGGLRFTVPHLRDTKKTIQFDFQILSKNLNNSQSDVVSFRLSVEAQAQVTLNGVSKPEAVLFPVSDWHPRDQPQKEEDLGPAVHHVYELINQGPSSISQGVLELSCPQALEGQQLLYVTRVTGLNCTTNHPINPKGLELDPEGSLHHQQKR
Integrin alpha-5/beta-1, sequence (P08648 895-1049 limits assumed): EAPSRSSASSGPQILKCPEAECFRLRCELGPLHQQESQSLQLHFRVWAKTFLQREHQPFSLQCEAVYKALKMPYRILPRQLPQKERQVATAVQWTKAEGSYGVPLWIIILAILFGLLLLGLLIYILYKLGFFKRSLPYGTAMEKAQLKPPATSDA

Integrin alpha-IIb/beta-3, sequence (P05106 27-788 limits assumed): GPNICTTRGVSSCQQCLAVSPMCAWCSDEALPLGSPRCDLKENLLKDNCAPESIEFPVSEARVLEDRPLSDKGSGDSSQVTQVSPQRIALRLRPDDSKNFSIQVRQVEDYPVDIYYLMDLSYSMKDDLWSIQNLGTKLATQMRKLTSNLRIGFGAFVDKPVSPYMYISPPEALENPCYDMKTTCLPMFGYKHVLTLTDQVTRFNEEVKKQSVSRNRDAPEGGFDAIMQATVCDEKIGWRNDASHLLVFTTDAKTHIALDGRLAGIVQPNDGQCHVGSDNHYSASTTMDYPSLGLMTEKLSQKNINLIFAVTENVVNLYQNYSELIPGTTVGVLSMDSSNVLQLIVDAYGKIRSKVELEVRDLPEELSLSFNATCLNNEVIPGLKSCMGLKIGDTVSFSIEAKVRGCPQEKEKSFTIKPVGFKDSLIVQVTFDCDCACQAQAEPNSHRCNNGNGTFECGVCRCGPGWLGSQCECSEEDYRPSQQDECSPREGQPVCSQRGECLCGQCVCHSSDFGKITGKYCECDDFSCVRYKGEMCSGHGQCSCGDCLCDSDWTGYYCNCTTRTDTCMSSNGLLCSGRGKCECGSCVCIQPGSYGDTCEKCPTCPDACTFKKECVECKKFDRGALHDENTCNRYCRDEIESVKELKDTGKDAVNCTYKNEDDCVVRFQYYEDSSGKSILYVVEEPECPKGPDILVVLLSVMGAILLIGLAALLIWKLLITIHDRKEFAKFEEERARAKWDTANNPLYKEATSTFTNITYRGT
Integrin alpha-IIb/beta-3, sequence (P08514 32-887 limits assumed): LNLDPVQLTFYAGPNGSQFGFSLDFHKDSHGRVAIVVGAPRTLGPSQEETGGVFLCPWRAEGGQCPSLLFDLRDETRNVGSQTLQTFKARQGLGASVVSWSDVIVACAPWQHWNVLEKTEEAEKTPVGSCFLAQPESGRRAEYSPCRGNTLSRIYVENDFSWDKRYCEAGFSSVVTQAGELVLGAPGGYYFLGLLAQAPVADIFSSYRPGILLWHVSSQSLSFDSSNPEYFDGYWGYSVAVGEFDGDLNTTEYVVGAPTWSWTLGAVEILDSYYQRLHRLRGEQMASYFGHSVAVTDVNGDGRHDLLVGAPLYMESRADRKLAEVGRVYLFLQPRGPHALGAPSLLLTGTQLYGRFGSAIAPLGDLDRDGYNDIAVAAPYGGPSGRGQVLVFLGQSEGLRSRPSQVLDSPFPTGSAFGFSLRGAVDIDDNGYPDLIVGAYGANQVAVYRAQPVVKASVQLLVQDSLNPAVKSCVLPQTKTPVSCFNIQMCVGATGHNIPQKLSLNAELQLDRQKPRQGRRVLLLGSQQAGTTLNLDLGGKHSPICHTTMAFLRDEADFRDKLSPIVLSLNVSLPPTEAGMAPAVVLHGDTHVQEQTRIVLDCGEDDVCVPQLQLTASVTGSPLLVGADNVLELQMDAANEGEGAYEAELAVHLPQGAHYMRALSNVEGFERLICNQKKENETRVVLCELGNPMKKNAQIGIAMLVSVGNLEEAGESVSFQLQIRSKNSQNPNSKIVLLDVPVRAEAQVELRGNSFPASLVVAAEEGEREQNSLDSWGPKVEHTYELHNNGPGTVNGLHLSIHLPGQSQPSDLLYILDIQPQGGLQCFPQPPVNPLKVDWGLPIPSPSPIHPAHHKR
Integrin alpha-IIb/beta-3, sequence (P08514 891-1039 limits assumed): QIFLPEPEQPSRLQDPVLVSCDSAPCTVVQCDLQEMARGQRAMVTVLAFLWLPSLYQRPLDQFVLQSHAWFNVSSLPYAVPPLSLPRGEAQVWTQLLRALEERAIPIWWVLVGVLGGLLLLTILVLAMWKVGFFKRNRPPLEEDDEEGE
Integrin alpha-V/beta-3, sequence (P05106 27-788 limits assumed): as the sequence (P05106 27-788 limits assumed) above
Integrin alpha-V/beta-3, sequence (P06756 31-889 limits assumed): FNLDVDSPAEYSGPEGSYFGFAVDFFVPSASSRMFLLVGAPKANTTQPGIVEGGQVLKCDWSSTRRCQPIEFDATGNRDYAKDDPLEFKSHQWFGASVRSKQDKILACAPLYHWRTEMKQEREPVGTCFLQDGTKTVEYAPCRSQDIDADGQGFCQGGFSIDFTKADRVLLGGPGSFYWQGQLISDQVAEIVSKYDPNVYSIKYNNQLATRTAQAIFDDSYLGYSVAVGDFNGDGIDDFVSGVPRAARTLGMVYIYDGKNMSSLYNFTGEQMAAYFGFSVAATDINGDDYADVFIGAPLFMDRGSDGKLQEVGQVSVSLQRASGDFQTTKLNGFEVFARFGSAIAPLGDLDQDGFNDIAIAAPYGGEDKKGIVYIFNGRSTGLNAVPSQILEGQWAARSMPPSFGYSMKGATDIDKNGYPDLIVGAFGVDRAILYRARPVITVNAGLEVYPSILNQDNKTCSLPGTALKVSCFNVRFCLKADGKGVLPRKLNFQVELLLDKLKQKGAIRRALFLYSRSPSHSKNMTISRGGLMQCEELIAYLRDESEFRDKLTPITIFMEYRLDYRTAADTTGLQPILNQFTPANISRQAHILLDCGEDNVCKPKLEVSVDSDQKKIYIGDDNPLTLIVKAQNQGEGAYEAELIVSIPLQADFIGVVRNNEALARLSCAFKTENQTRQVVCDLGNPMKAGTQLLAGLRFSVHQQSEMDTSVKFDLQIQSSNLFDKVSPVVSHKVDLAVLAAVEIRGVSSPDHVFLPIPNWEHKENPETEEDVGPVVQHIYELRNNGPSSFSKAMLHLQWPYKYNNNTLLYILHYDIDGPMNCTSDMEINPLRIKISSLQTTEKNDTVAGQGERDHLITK
Integrin alpha-V/beta-3, sequence (P06756 891-1048 limits assumed): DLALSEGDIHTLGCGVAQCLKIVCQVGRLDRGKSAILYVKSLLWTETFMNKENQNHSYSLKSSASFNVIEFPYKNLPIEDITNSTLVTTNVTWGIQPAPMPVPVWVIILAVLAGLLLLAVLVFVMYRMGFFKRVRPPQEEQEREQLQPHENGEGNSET

SMILES: N=C(N)NOCCOc1ccc2[nH]c(C(=O)NCC(NCc3ccccc3)C(=O)O)cc2c1 (stereo not given)
- IC50 (Integrin alpha-V/beta-3): > 20000 nM

SMILES: NC(N)=NOCCOc1ccc2[nH]c(C(=O)NCC(N)C(=O)O)cc2c1 (stereo not given)
- IC50 (Integrin alpha-V/beta-3): > 20000 nM

SMILES: N=C(N)NOCCOc1ccc2[nH]c(C(=O)NCC(NC(=O)OCc3ccccc3)C(=O)O)cc2c1 (stereo not given)
- IC50 (Integrin alpha-V/beta-3): 7.2 nM

SMILES: CC1(C)C2CCC1(S(=O)(=O)NC(CNC(=O)c1cc3cc(OCCONC(=N)N)ccc3[nH]1)C(=O)O)CC2 (stereo not given)
- IC50 (Integrin alpha-V/beta-3): 0.4 nM

SMILES: O=C(NCc1ccccc1)NOCCOc1ccc2[nH]c(C(=O)NCC(NC(=O)OCc3ccccc3)C(=O)O)cc2c1 (stereo not given)
- IC50 (Integrin alpha-V/beta-3): > 20000 nM

SMILES: N=C(N)NOCCOc1ccc2[nH]c(C(=O)NC(CC(=O)O)c3cc(Cl)cc(Cl)c3)cc2c1 (stereo not given)
- IC50 (Integrin alpha-V/beta-3): > 20 nM

Second part, the compound after the results:

- IC50 (Integrin alpha-V/beta-3): 10.5 nM
SMILES: CCCCS(=O)(=O)NC(CNC(=O)c1cc2cc(OCCON=C(N)N)ccc2[nH]1)C(=O)O (stereo not given)

- IC50 (Integrin alpha-V/beta-3): 130 nM
SMILES: Cc1ccc(S(=O)(=O)NC(CNC(=O)c2cc3cc(OCCO/N=C(\N)NC(=O)OC(C)(C)C)ccc3[nH]2)C(=O)O)cc1 (stereo not given)

- IC50 (Integrin alpha-V/beta-3): 310 nM
SMILES: N=C(N)NOCCOc1ccc2[nH]c(C(=O)NCC(NC(=O)c3ccccc3)C(=O)O)cc2c1 (stereo not given)

- IC50 (Integrin alpha-V/beta-3): 9 nM
SMILES: Cc1ccc(S(=O)(=O)NC(CNC(=O)c2cc3cc(OCCON=C(N)N)ccc3[nH]2)C(=O)O)cc1 (stereo not given)

- IC50 (Integrin alpha-V/beta-3): 3.4 nM
- IC50 (Integrin alpha-V/beta-5): 1000 nM
- IC50 [1]: 13 nM
SMILES: N=C(N)NOCCOc1ccc2[nH]c(C(=O)NCC(NS(=O)(=O)c3ccccc3)C(=O)O)cc2c1 (stereo not given)

- IC50 (Integrin alpha-V/beta-3): 100 nM
- IC50 (Integrin alpha-V/beta-5): > 20000 nM
- IC50 [1]: 170 nM
- IC50 (Integrin alpha-5/beta-1): > 20000 nM
SMILES: O=C(NCC(NS(=O)(=O)c1ccccc1)C(=O)O)c1cc2cc(OCCONC3=NCCN3)ccc2[nH]1 (stereo not given)

- IC50 (Integrin alpha-V/beta-3): 6.1 nM
- IC50 [1]: 25 nM
- IC50 (Integrin alpha-5/beta-1): > 1000 nM
SMILES: N=C(N)NOCCOc1ccc2[nH]c(C(=O)NCC(NS(=O)(=O)c3cc(Cl)cc(Cl)c3)C(=O)O)cc2c1 (stereo not given)
